Data published in patent EP2003118A1, “Cinnamic acid derivatives as modulators of EP2 receptors” (Bayer Schering Pharma Aktiengesellschaft, priority 2007, dated 2008).

Tests used:
Kumulus-Eizell Komplexe = test: cumulus expansion test in vitro; assay type: cell-based, Mäusen; settings: competing with PGE2
From the text: In immaturen weiblichen Mäusen (Stamm : CD1 (ICR) von Charles River) wird in einem Alter von 14 - 18 Tagen die Follikulogenese durch eine einmalige Gabe (intraperitoneal) von 10 I.E. PMSG (Pregnant Mare Serum Gonadotropine; Sigma G-4877, Lot 68H0909) induziert. 47 - 50 Stunden nach der Injektion werden die Ovarien entnommen und die Kumulus-Eizell Komplexe entnommen. Der Kumulus Komplex ist in diesem Stadium noch nicht expandiert. Die Kumulus-Eizell Komplexe werden nun für 20 - 24 Stunden mit Prostaglandin E2 (PGE2) (0,3 µM), Vehikel Kontrolle (Ethanol) oder Testsubstanzen inkubiert. Medium: alpha- MEM Medium mit 0,1 mM IBMX, Pyruvate (0,23 mM) Glutamine (2 mM), Pen/Strep 100 IU/ml Pen. und 100 µg/ml Strep.) und HSA (8 mg/ml)). Danach wird die Kumulus Expansion durch die Einteilung in vier Stadien (nach Vanderhyden et al. Dev Biol. 1990 Aug; 140(2):307-317) festgestellt. Tabelle 1: Beispiel für die biologische Wirksamkeit der erfindungsgemäßen Verbindungen (gemessen mittels cAMP Antagonismustest): […]

[1] = biological target: T1, EP2-Subtyp des humanen PGE2-Rezeptors (Homo sapiens, UniProt P43116); test: cellular cAMP agonism test; assay type: cell-based
T1 construct: host or cells: cells in a culture plate

[2] = biological target: T1, EP2-Subtyp des humanen PGE2-Rezeptors; test: cAMP antagonism test (HTRF cAMP, in presence of PGE2); assay type: cell-based; settings: cAMP Antagonismustest, PGE2 as agonist; read-out: Antagonismus [IC50
From the text: Die Bindung von PGE2 an den EP2-Subtyp des humanen PGE2-Rezeptors induziert die Aktivierung membranständiger Adenylatzyklasen und führt zur Bildung von cAMP. In Gegenwart des Phosphodiesteraseinhibitors IBMX wird das durch diese Stimulation akkumulierte und mittels Zell-Lyse freigesetzte cAMP in einem kompetitiven Nachweisverfahren eingesetzt. In diesem Test konkurriert das cAMP im Lysat mit cAMP-XL665 um die Bindung eines Eu-Kryptat markierten Anti-cAMP Antikörpers.
Dabei entsteht in Abwesenheit von zellulärem cAMP ein maximales Signal, welches auf der Kopplung dieses Antikörpers an das cAMP-XL665 Molekül beruht. Dadurch entsteht nach Anregung bei 337 nm ein auf FRET (fluorescence resonance energy transfer) basierendes, lang anhaltendes Emissionssignal bei 665 nm (und bei […]). Beide Signale werden in einem geeigneten Messgerät zeitlich versetzt, d.h. nach Abklingen der Hintergrundsfluoreszenz gemessen. Jegliche Erhöhung des durch Prostglandin-E2-Gabe bedingten niedrigen FRET-Signals (gemessen als Well-Ratio-Veränderung = Emission665nm/Emission620nm * 10000) zeigt die Wirkung von Antagonisten.
Die in einer Testplatte und 30 % DMSO vorgelegten Substanzlösungen (0.75 µl) werden in 16 µl einer KRSB+IBMX-Stimulationslösung gelöst (1 X Krebs-Ringer Bicarbonate Buffer; Sigma-Aldrich # K-4002; inklusive 750 µM 3-Isobutyl-1-methylxanthine Sigma-Aldrich # 1-7018), anschließend werden 15 µl davon in eine medienfreie Zellkulturplatte überführt, die kurz zuvor mit KRSB gewaschen worden war.
Nach einer 30-minütigen Vorinkubation bei Raumtemperatur (RT) werden 5 µl einer 4xPGE2 Lösung (11 nM) zugegeben und in Gegenwart des Agonisten für weitere 60 min bei RT inkubiert (Volumen: ~ 20 µl), bevor die Reaktion anschlieβend durch Zugabe von 5 µl Lysispuffer gestoppt und für weitere 20 min bei RT inkubiert wird (Volumen: ~ 25 µl). Das Zell-Lysat wird anschließend in eine Messplatte überführt und entsprechend den Herstellerangaben (cyclic AMP kit Cisbio International # 62AMPPEC) gemessen.

T1 sequence (P43116 whole entry): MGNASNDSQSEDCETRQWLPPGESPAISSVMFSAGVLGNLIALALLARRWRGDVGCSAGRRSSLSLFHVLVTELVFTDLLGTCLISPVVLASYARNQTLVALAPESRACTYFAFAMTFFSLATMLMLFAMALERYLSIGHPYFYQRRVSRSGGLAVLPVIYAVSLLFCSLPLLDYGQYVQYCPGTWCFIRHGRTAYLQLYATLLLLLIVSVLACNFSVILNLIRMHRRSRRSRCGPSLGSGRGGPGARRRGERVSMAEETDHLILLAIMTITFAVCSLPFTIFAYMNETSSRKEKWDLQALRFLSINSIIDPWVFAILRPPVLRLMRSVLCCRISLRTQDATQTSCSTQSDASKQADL

Row | SMILES | IC50 [2] | further results
1 | CC(C)Oc1ccc2c(=O)c3cc(C(=O)O)ccc3oc2c1 [AH 6809, reference compound] |  | Unterdrückung der Kumulus Expansion (Kumulus-Eizell Komplexe; 100 - 200 µM): ca. 30%
2 | Cc1[nH]c2c(F)ccc(C)c2c1CCNC(=O)/C=C/c1cncc2ccccc12 [Beispiel 47, (E)-N-[2-(7-Fluor-2,4-dimethyl-1H-indol-3-yl)-ethyl]-3-isochinolin-4-yl-acrylamid] | 1.5 µM | 
3 | Cc1[nH]c2c(F)ccc(C)c2c1CCNC(=O)/C=C/c1ccc(OCCN(C)C)cc1 [Beispiel 18, (E)-3-[4-(2-Dimethylamino-ethoxy)-phenyl]-N-[2-(7-fluor-2,4-dimethyl-1H-indol-3-yl)-ethyl]-acrylamid] | 2.2 µM | 
4 | Cc1[nH]c2c(F)ccc(C)c2c1CCNC(=O)/C=C/c1ccc2c(c1)OCO2 [Beispiel 1, (E)-3-Benzo[1,3]dioxol-5-yl-N-[2-(7-fluor-2,4-dimethyl-1H-indol-3-yl)-ethyl]-acrylamid] |  | Unterdrückung der Kumulus Expansion (Kumulus-Eizell Komplexe; at a 10-fold lower concentration than AH 6809 (100 - 200 µM)): 61%

More lines, main results first:

Row | IC50 [2] | SMILES | further results
5 | 1 µM | Cc1[nH]c2c(F)ccc(C)c2c1CCNC(=O)/C=C/c1cccc(S(N)(=O)=O)c1 [Beispiel 36, (E)-N-[2-(7-Fluor-2,4-dimethyl-1H-indol-3-yl)-ethyl]-3-(3-sulfamoyl-phenyl)-acrylamid] | Wirkung im zellulären Agonismustest [1]: keine Inhibition
6 | 1.5 µM | Cc1[nH]c2c(F)ccc(C)c2c1CCNC(=O)C=Cc1ccncc1 (mixture of isomers) [Beispiel 2, (E/Z)-N-[2-(7-Fluor-2,4-dimethyl-1H-indol-3-yl)-ethyl]-3-pyridin-4-yl-acrylamid] | 
